Earlier results as cited in US6855351B2, “Pesticide formulation containing azadirachtin (not less than 300 ppm) and salanin in a formulated product with neem oil” (T. Stanes and Company Limited, priority 2002, dated 2005).

Tested on: mammals
Conditions: in vivo

C/C=C(\C)C(=O)O[C@H]1C[C@@H](OC(C)=O)[C@@]2(C(=O)OC)CO[C@H]3[C@@H](O)[C@@](C)([C@]45O[C@@]4(C)[C@H]4C[C@@H]5O[C@@H]5OC=C[C@@]54O)[C@H]4[C@]1(CO[C@]4(O)C(=O)OC)[C@@H]32 [Azadirachtin]
mammalian toxicity: no apparent mammalian toxicity
